According to patent US7820623B2 (priority 2006, dated 2010):
Where two headings read alike, the source gives them in different places. Bridge positions count the residues as written; N and C are the ends. Peptide text beside a SMILES is read from it.

How the values were obtained:
[1] = test system: thapsigargin-induced IL-2 production in human whole blood
[2] = test system: thapsigargin-induced IFN-g production in human whole blood; assay type: cell-based
[3] = read-out: Analogue Activity (IC50) WB/IL-2
[4] = read-out: Analogue Activity (IC50) WB/IFNg

Row | Compound | IC50 [1, 3] [pM] | IC50 [2, 4] [pM] | other results
1 | CC[C@H](C)[C@@H]1NC(=O)[C@H](CCCCN)NC(=O)[C@@H](NC(=O)[C@H](CCCNC(=N)N)NC(=O)[C@@H](NC(=O)[C@H](CC(N)=O)NC(=O)[C@@H](NC(=O)[C@@H](NC(=O)[C@@H](NC(=O)CN)C(C)C)[C@@H](C)CC)[C@@H](C)CC)C(C)C)CSSC[C@@H]2NC(=O)[C@H](CCCCN)NC(=O)CNC(=O)[C@H](Cc3ccccc3)NC(=O)[C@H](CCCNC(=N)N)NC(=O)[C@H](CCSC)NC(=O)CNC(=O)[C@H](C)NC(=O)[C@H](CCCCN)NC(=O)[C@H](CCCCN)NC(=O)[C@@H]3CSSC[C@@H](C(=O)N[C@H](C(=O)N4CCC[C@H]4C(=O)N[C@@H](CCCCN)C(=O)O)[C@@H](C)O)NC(=O)[C@H](Cc4c[nH]cn4)NC(=O)[C@H](CSSC[C@H](NC(=O)[C@H](CCC(N)=O)NC(=O)[C@H](CCCNC(=N)N)NC(=O)[C@H](CO)NC1=O)C(=O)N[C@@H](CC(C)C)C(=O)N[C@@H](CCC(=O)O)C(=O)N1CCC[C@H]1C(=O)N3)NC(=O)[C@H](CCCCN)NC(=O)CNC(=O)[C@H](CC(N)=O)NC(=O)[C@H](CCSC)NC2=O [K7R] (H-GVIINVRCKISRQCLEPCKKAGMRFGKCMNGKCHCTPK-OH; disulfide 8-28, 14-33, 18-35) | 78 | 71 | –
2 | CC[C@H](C)[C@@H]1NC(=O)[C@H](CCCCN)NC(=O)[C@@H](NC(=O)[C@H](CCCCN)NC(=O)[C@@H](NC(=O)[C@H](CC(N)=O)NC(=O)[C@@H](NC(=O)[C@@H](NC(=O)[C@@H](NC(=O)CN)C(C)C)[C@@H](C)CC)[C@@H](C)CC)C(C)C)CSSC[C@@H]2NC(=O)[C@H](CCCCN)NC(=O)CNC(=O)[C@H](Cc3ccccc3)NC(=O)[C@H](CCCNC(=N)N)NC(=O)[C@H](CCSC)NC(=O)CNC(=O)[C@H](C)NC(=O)[C@H](CCCCN)NC(=O)[C@H](CCCCN)NC(=O)[C@@H]3CSSC[C@@H](C(=O)N[C@H](C(=O)N4CCC[C@H]4C(=O)N[C@@H](CCCCN)C(=O)O)[C@@H](C)O)NC(=O)[C@H](Cc4c[nH]cn4)NC(=O)[C@H](CSSC[C@H](NC(=O)[C@H](CCC(N)=O)NC(=O)[C@H](CCCNC(=N)N)NC(=O)[C@H](CO)NC1=O)C(=O)N[C@@H](CC(C)C)C(=O)N[C@@H](CCC(=O)O)C(=O)N1CCC[C@H]1C(=O)N3)NC(=O)[C@H](CCCCN)NC(=O)CNC(=O)[C@H](CCCNC(=N)N)NC(=O)[C@H](CCSC)NC2=O [N30R] (H-GVIINVKCKISRQCLEPCKKAGMRFGKCMRGKCHCTPK-OH; disulfide 8-28, 14-33, 18-35) | 405 | 445 | –
3 | CC[C@H](C)[C@@H]1NC(=O)[C@H](C)NC(=O)[C@@H](NC(=O)[C@H](CCCCN)NC(=O)[C@@H](NC(=O)[C@H](CC(N)=O)NC(=O)[C@@H](NC(=O)[C@@H](NC(=O)[C@@H](NC(=O)CN)C(C)C)[C@@H](C)CC)[C@@H](C)CC)C(C)C)CSSC[C@@H]2NC(=O)[C@H](CCCCN)NC(=O)CNC(=O)[C@H](Cc3ccccc3)NC(=O)[C@H](CCCNC(=N)N)NC(=O)[C@H](CCSC)NC(=O)CNC(=O)[C@H](C)NC(=O)[C@H](CCCCN)NC(=O)[C@H](CCCCN)NC(=O)[C@@H]3CSSC[C@@H](C(=O)N[C@H](C(=O)N4CCC[C@H]4C(=O)N[C@@H](CCCCN)C(=O)O)[C@@H](C)O)NC(=O)[C@H](Cc4c[nH]cn4)NC(=O)[C@H](CSSC[C@H](NC(=O)[C@H](CCC(N)=O)NC(=O)[C@H](CCCNC(=N)N)NC(=O)[C@H](CO)NC1=O)C(=O)N[C@@H](CC(C)C)C(=O)N[C@@H](CCC(=O)O)C(=O)N1CCC[C@H]1C(=O)N3)NC(=O)[C@H](CCCCN)NC(=O)CNC(=O)[C@H](CC(N)=O)NC(=O)[C@H](CCSC)NC2=O [K9A] (H-GVIINVKCAISRQCLEPCKKAGMRFGKCMNGKCHCTPK-OH; disulfide 8-28, 14-33, 18-35) | 79.6 | 71.1 | –
4 | GVIINVKCKISRQCAEPCKKAGMRFGKCMNGKCHCTPK [Ala-15 (SEQ ID No: 1412)] | – | – | IC50 ([1]; read-out: Average IC50 IL-2): 108 pM; IC50 ([2]; read-out: Average IC50 IFNg): 108 pM
5 | E16K, K20D, des36-38 (GVIINVKCKISRQCLKPCKDAGMRFGKCMNGKCHC) | – | – | IC50 ([1]; read-out: WB/IL-2 (IC50)): 3940 pM; IC50 ([2]; read-out: WB/IFNg (IC50)): 6990 pM
6 | CC[C@H](C)[C@@H]1NC(=O)[C@H](CCCCN)NC(=O)[C@@H](NC(=O)[C@H](CCCCN)NC(=O)[C@@H](NC(=O)[C@H](CC(N)=O)NC(=O)[C@@H](NC(=O)[C@@H](NC(=O)[C@@H](NC(=O)CN)C(C)C)[C@@H](C)CC)[C@@H](C)CC)C(C)C)CSSC[C@@H]2NC(=O)[C@H](CCCCN)NC(=O)CNC(=O)[C@H](Cc3ccccc3)NC(=O)[C@H](CCCNC(=N)N)NC(=O)[C@H](CCSC)NC(=O)CNC(=O)[C@H](C)NC(=O)[C@H](CCCCN)NC(=O)[C@H](CCCCN)NC(=O)[C@@H]3CSSC[C@@H](C(=O)N[C@H](C(=O)N4CCC[C@H]4C(=O)N[C@@H](CCCCN)C(=O)O)[C@@H](C)O)NC(=O)[C@H](Cc4c[nH]cn4)NC(=O)[C@H](CSSC[C@H](NC(=O)[C@H](CCC(N)=O)NC(=O)[C@H](CCCNC(=N)N)NC(=O)[C@H](CO)NC1=O)C(=O)N[C@@H](CC(C)C)C(=O)N[C@@H](CCC(=O)O)C(=O)N1CCC[C@H]1C(=O)N3)NC(=O)[C@H](CCC(=O)O)NC(=O)CNC(=O)[C@H](CC(N)=O)NC(=O)[C@H](CCSC)NC2=O [K32E] (H-GVIINVKCKISRQCLEPCKKAGMRFGKCMNGECHCTPK-OH; disulfide 8-28, 14-33, 18-35) | 62 | 63 | –
7 | CC[C@H](C)[C@@H]1NC(=O)[C@H](CCCCN)NC(=O)[C@@H](NC(=O)[C@H](CCCCN)NC(=O)[C@@H](NC(=O)[C@H](CC(N)=O)NC(=O)[C@@H](NC(=O)[C@@H](NC(=O)[C@@H](NC(=O)CN)C(C)C)[C@@H](C)CC)[C@@H](C)CC)C(C)C)CSSC[C@@H]2NC(=O)[C@H](CCCCN)NC(=O)CNC(=O)[C@H](Cc3ccccc3)NC(=O)[C@H](CCCNC(=N)N)NC(=O)[C@H](CCSC)NC(=O)CNC(=O)[C@H](C)NC(=O)[C@H](C)NC(=O)[C@H](CCCCN)NC(=O)[C@@H]3CSSC[C@@H](C(=O)N[C@H](C(=O)N4CCC[C@H]4C(=O)N[C@@H](CCCCN)C(=O)O)[C@@H](C)O)NC(=O)[C@H](Cc4c[nH]cn4)NC(=O)[C@H](CSSC[C@H](NC(=O)[C@H](CCC(N)=O)NC(=O)[C@H](CCCNC(=N)N)NC(=O)[C@H](CO)NC1=O)C(=O)N[C@@H](CC(C)C)C(=O)N[C@@H](CCC(=O)O)C(=O)N1CCC[C@H]1C(=O)N3)NC(=O)[C@H](CCCCN)NC(=O)CNC(=O)[C@H](CC(N)=O)NC(=O)[C@H](CCSC)NC2=O [K20A] (H-GVIINVKCKISRQCLEPCKAAGMRFGKCMNGKCHCTPK-OH; disulfide 8-28, 14-33, 18-35) | 379 | 379 | –
8 | GGGGS-Osk1 (GGGGSGVIINVKCKISRQCLEPCKKAGMRFGKCMNGKCHCTPK) | – | – | IC50 ([1]; read-out: WB/IL-2 (IC50)): 1360 pM; IC50 ([2]; read-out: WB/IFNg (IC50)): 2200 pM
9 | CC[C@H](C)[C@@H]1NC(=O)[C@H](CCCCN)NC(=O)[C@@H](NC(=O)[C@H](CCCCN)NC(=O)[C@@H](NC(=O)[C@H](CC(N)=O)NC(=O)[C@@H](NC(=O)[C@@H](NC(=O)[C@@H](NC(=O)CN)C(C)C)[C@@H](C)CC)[C@@H](C)CC)C(C)C)CSSC[C@@H]2NC(=O)[C@H](CCCCN)NC(=O)CNC(=O)[C@H](Cc3ccccc3)NC(=O)[C@H](CCCNC(=N)N)NC(=O)[C@H](CCSC)NC(=O)CNC(=O)[C@H](C)NC(=O)[C@H](CCCCN)NC(=O)[C@H](CCCCN)NC(=O)[C@@H]3CSSC[C@@H](C(=O)N[C@H](C(=O)N4CCC[C@H]4C(=O)N[C@@H](CCCCN)C(=O)O)[C@@H](C)O)NC(=O)[C@H](Cc4c[nH]cn4)NC(=O)[C@H](CSSC[C@H](NC(=O)[C@H](CCC(N)=O)NC(=O)[C@H](CCCNC(=N)N)NC(=O)[C@H](CO)NC1=O)C(=O)N[C@@H](CC(C)C)C(=O)N[C@@H](CCC(=O)O)C(=O)N1CCC[C@H]1C(=O)N3)NC(=O)[C@H](CCCCN)NC(=O)[C@H](CCCNC(=N)N)NC(=O)[C@H](CC(N)=O)NC(=O)[C@H](CCSC)NC2=O [G31R] | 314 | 343 | –
10 | GVAINVKCKISRQCLEPCKKAGMRFGKCMNGKCHCTPK [Ala-3 (SEQ ID No: 1402)] | – | – | IC50 ([1]; read-out: Average IC50 IL-2): 88.3 pM; IC50 ([2]; read-out: Average IC50 IFNg): 99.2 pM
11 | GVIINVKCKISRQCLEPCAKAGMRFGKCMNGKCHCTPK [Ala-19 (SEQ ID No: 1415)] | – | – | IC50 ([1]; read-out: Average IC50 IL-2): 162 pM; IC50 ([2]; read-out: Average IC50 IFNg): 162 pM
12 | CC[C@H](C)[C@H](NC(=O)[C@@H](NC(=O)CN)C(C)C)C(=O)N[C@H](C(=O)N[C@@H](CC(N)=O)C(=O)N[C@H](C(=O)N[C@@H](CCCCN)C(=O)N[C@H]1CSSC[C@@H]2NC(=O)[C@H](CCCCN)NC(=O)CNC(=O)[C@H](Cc3ccccc3)NC(=O)[C@H](CCCNC(=N)N)NC(=O)[C@H](CCSC)NC(=O)CNC(=O)[C@H](C)NC(=O)[C@H](CCCCN)NC(=O)[C@H](CCCCN)NC(=O)[C@@H]3CSSC[C@@H](C(=O)N[C@H](C(=O)N4CCC[C@H]4C(=O)N[C@@H](CCCCN)C(=O)O)[C@@H](C)O)NC(=O)[C@H](Cc4c[nH]cn4)NC(=O)[C@H](CSSC[C@H](NC(=O)[C@H](CCC(N)=O)NC(=O)[C@H](CCCNC(=N)N)NC(=O)[C@H](CO)NC(=O)[C@H](CCCNC(=N)N)NC(=O)[C@H](CCCCN)NC1=O)C(=O)N[C@@H](CC(C)C)C(=O)N[C@@H](CCC(=O)O)C(=O)N1CCC[C@H]1C(=O)N3)NC(=O)[C@H](CCCCN)NC(=O)CNC(=O)[C@H](CC(N)=O)NC(=O)[C@H](CCSC)NC2=O)C(C)C)[C@@H](C)CC [I10R] (H-GVIINVKCKRSRQCLEPCKKAGMRFGKCMNGKCHCTPK-OH; disulfide 8-28, 14-33, 18-35) | 307 | 474 | –
13 | CC[C@H](C)[C@@H]1NC(=O)[C@H](CCCCN)NC(=O)[C@@H](NC(=O)[C@H](CCCCN)NC(=O)[C@@H](NC(=O)[C@H](CC(N)=O)NC(=O)[C@H](C)NC(=O)[C@@H](NC(=O)[C@@H](NC(=O)CN)C(C)C)[C@@H](C)CC)C(C)C)CSSC[C@@H]2NC(=O)[C@H](CCCCN)NC(=O)CNC(=O)[C@H](Cc3ccccc3)NC(=O)[C@H](CCCNC(=N)N)NC(=O)[C@H](CCSC)NC(=O)CNC(=O)[C@H](C)NC(=O)[C@H](CCCCN)NC(=O)[C@H](CCCCN)NC(=O)[C@@H]3CSSC[C@@H](C(=O)N[C@H](C(=O)N4CCC[C@H]4C(=O)N[C@@H](CCCCN)C(=O)O)[C@@H](C)O)NC(=O)[C@H](Cc4c[nH]cn4)NC(=O)[C@H](CSSC[C@H](NC(=O)[C@H](CCC(N)=O)NC(=O)[C@H](CCCNC(=N)N)NC(=O)[C@H](CO)NC1=O)C(=O)N[C@@H](CC(C)C)C(=O)N[C@@H](CCC(=O)O)C(=O)N1CCC[C@H]1C(=O)N3)NC(=O)[C@H](CCCCN)NC(=O)CNC(=O)[C@H](CC(N)=O)NC(=O)[C@H](CCSC)NC2=O [I4A] (H-GVIANVKCKISRQCLEPCKKAGMRFGKCMNGKCHCTPK-OH; disulfide 8-28, 14-33, 18-35) | 111 | 87.3 | –
